1 molecule from patent publication US7883687B2, “15O-labeled monosaccharide and producing method thereof” (Astellas Pharma Inc., priority 2004, dated 2011) can be followed below.

The nature of the series: PET imaging in rat (Planar Positron Imaging System). As to conditions: injected from tail vein, integrated PET image from 15 min to 30 min after administration (FIG. 4A, 4B). The procedure:
Hydroxylation of 2,6-dideoxy-6-iodo-D-glucose and 6-iodo-6-deoxy-D-glucose was performed in the glass filter reactor as shown in FIG. 1. Sep-Pak cartridges were purchased from Waters. The cyclotron is OSCAR-12 (NKK/Oxford). The target gas consisted of 1.5% O2 in ^15N2. PET scans were obtained on Planar Positron Imaging System (Hamamatsu Photonics K.K.).
A solution of 2,6-dideoxy-6-iodo-D-glucose (274 mg, 1.0 mmol), tributyltin hydride (807 μl, 3.0 mmol) and AIBN (4.0 mg, 0.025 mmol) in PhCF3 (20.0 ml)/C10F18 (4.5 ml)/2-BuOH (3.0 ml) was placed in the reactor, which was on the automated synthetic apparatus (FIG. 3). Proton bombardment (beam current 50 μA) on target gas started (N2/O2=98.5/1.5, target gas pressure=6 kg/cm^2). The beginning of the bombardment was defined as 0 sec for convenience. Cold gas (N2/O2=[…], 180 ml/min) was provided and heating with temperature-controlled air (80° C.) started simultaneously at 2 min 40 sec. At 4.0 min, the target gas was evacuated from the targeting area in the cyclotron system (20 ml/min). The target gas was mixed with cold N2/O2 gas (target gas/N2/O2=20/177/3, 200 ml/min), and the resulting gas was then supplied to the reaction vessel. […] At 5 min 20 sec, the bombardment stopped. However, evacuation of the target gas continued. Triphenylphosphine (262 mg, 1.0 mmol in 1.5 ml of PhCF3) was added at 6.0 min. […]

Consider `O=CCC(O)C(O)C(O)C[15OH]` [[^15O]2-DG, ^15[O]2-deoxy-D-glucose], for which the “accumulation of tracer in integrated PET image” value was “accumulation of [^15O]2-DG in heart, kidney and bladder”.
